Reference: US20160263131A1, “TREATMENT OF HEPATIC FIBROSIS USING AN INHIBITOR OF CBP/CATENIN” (priority 2013, published 2016)

Legend:
NASH mice [1] = test: Serum ALT in NASH mice; type: in vivo, C57BL/6J mice; details: mean±SD, Vehicle 58±29, no significant difference
Description: (§1) Non-fasting blood glucose was measured in whole blood using Life Check (EIDIA, Japan). For serum biochemistry, blood was collected in polypropylene tubes without anticoagulant and kept at room temperature for 30 minutes, followed by at 4° C. for 1 hour. The blood samples were then centrifuged at 1,000×g for 15 minutes at 4° C. The supernatant was collected and stored at −80° C. until use. Serum ALT and TG levels were measured by FUJI DRI-CHEM 7000 (Fujifilm, Japan).

Collagen Type 3 = test: Quantitative RT-PCR of liver, Collagen Type 3 mRNA, NASH mice; type: in vivo, C57BL/6J mice; details: 13 weeks of age, mean ± SD
Description: (§2) Total RNA was extracted from liver samples using RNAiso (Takara Bio, Japan) according to the manufacturer's instructions. One μg of RNA was reverse-transcribed using a reaction mixture containing 4.4 mM MgCl2 (Roche, Switzerland), 40 U RNase inhibitor (Toyobo, Japan), 0.5 mM dNTP (Promega, USA), 6.28 μM random hexamer (Promega), 5× first strand buffer (Promega), 10 mM dithiothreitol (Invitrogen, USA) and 200 U MMLV-RT (Invitrogen) in a final volume of 20 μL. The reaction was carried out for 1 hour at 37° C., followed by 5 minutes at 99° C. Real-time PCR was performed using real-time PCR DICE and SYBR premix Taq (Takara Bio). To calculate the relative mRNA expression level, the expression of each gene was normalized to that of reference gene 36B4 (gene symbol: Rplp0). Information of PCR-primer sets and the plate layout was described in Table 1.

NASH mice [2] = test: Sirius red staining, fibrosis area in liver of NASH mice; type: in vivo, C57BL/6J mice; details: for Sirius red-positive area (fibrosis area): NASH mice, 13 weeks of age, mean ± SD, n = 8, Vehicle 1.02 ± 0.33
Description: C57BL/6J mice (15-day pregnant female) were obtained from Charles River Laboratories Japan (Kanagawa, Japan). All animals used in this study were housed and cared for in accordance with the Japanese Pharmacological Society Guidelines for Animal Use. The animals were maintained in a SPF facility under controlled conditions of temperature (23±2° C.), humidity (45±10%), lighting (12-hour artificial light and dark cycles; light from 8:00 to 20:00) and air exchange. A high pressure (20±4 Pa) was maintained in the experimental room to prevent contamination of the facility. The animals were housed in polycarbonate cages KN-600 (Natsume Seisakusho, Japan) with a maximum of 4 mice per cage. Sterilized PULMASμ (Material Research Center, Japan) was used for bedding and replaced once a week. Sterilized solid HFD was provided ad libitum, being placed in the metal lid on top of the cage. Pure water was provided ad libitum from a water bottle equipped with a rubber stopper and a sipper tube. Water bottles were replaced once a week, cleaned and sterilized in autoclave and reused. Mice were identified by numbers engraved on earrings. Each cage was labeled with a specific identification code.

NASH mice [3] = test: Serum TG in NASH mice; type: in vivo, C57BL/6J mice; details: mean±SD
Description: as §1

NASH mice [4] = test: Liver weight and liver-to-body weight ratio in NASH mice; type: in vivo, C57BL/6J mice; details: mean±SD; for Liver-to-body weight ratio: Vehicle 8.1±1.1, no significant difference; for Mean liver weight: Vehicle 1870±418, no significant difference
Description: (§3) The viability, clinical signs and behavior were monitored daily. Body weight was recorded daily before drug administration. […] The animals were sacrificed by exsanguination through direct cardiac puncture under ether anesthesia (Wako Pure Chemical Industries).

α-SMA = test: Quantitative RT-PCR of liver, α-SMA mRNA, NASH mice; type: in vivo, C57BL/6J mice; details: 13 weeks of age, mean ± SD
Description: as §2

NASH mice [5] = test: HE staining and NAFLD Activity score in NASH mice; details: for NAFLD Activity score (NAS): mean±SD, Vehicle 5.9±1.0, tended to decrease
Description: NASH was induced in 40 male mice by a single subcutaneous injection of 200 μg streptozotocin (Sigma-Aldrich, USA) 2 days after birth and feeding with high fat diet (HFD, 57 kcal % fat, cat# HFD32, CLEA Japan, Japan) after 4 weeks of age. The mice were randomized into 5 groups of 8 mice at 9 weeks of age. Eight male littermates, fed with normal diet (cat# CE-2, CLEA Japan) without streptozotocin treatment, were used for the Normal group.
The test substance solution was filled in the osmotic pumps at concentrations determined based on the individual body weight at the start of treatment (day 0). Telmisartan was administered by oral route in a volume of 10 mL/kg body weight.
Telmisartan was administered once daily at a dose of 10 mg/kg body weight.
For HE staining, sections were cut from paraffin blocks of liver tissue prefixed in Bouin's solution and stained with Lillie-Mayer's Hematoxylin (Muto Pure Chemicals, Japan) and eosin solution (Wako Pure Chemical Industries).

NASH mice [6] = test: Liver TG content in NASH mice; type: in vivo, C57BL/6J mice; details: mean±SD, Vehicle 58.8±26.9, no significant difference
Description: Liver total lipid-extracts were obtained from right lobes by Folch's method (Folch J. et al, J. Biol. Chem. 1957; 226 (1): 497). The livers were homogenized in chloroform-methanol (2:1, v/v) and incubated overnight at room temperature. After washing with chloroform-methanol-water (8:4:3, v/v/v), the extracts were evaporated to dryness, and dissolved in isopropanol. Liver TG levels were measured by Triglyceride E-test (Wako Pure Chemical Industries). Extracts were diluted 2- to 4-fold in isopropanol when the TG contents exceed the limit of detection.

[7] = Body weight and general condition of NASH mice; details: for Mean body weight at sacrifice / Mean body weight during the treatment period: NASH mice; for Mean body weight at sacrifice: mean±SD, Vehicle 22.9±2.9, no significant difference; for Mean body weight during the treatment period: versus vehicle group
Description: as §3

TIMP-1 = test: Quantitative RT-PCR of liver, TIMP-1 mRNA, NASH mice; type: in vivo, C57BL/6J mice; details: 13 weeks of age, mean ± SD, n = 8, Vehicle 7.74 ± 4.15, no significant difference
Description: as §2

NASH mice [8] = test: Whole blood glucose in NASH mice; type: in vivo, C57BL/6J mice; details: mean±SD
Description: as §1

[9] = high dose 3 mg/kg/day s.c. infusion 9-13 wks
[10] = low dose 1 mg/kg/day s.c. infusion 9-13 wks

Compound: C[C@H]1[C@H]2N(C(=O)CN(C)N2C(=O)NCc2ccccc2)[C@@H](Cc2ccc(OP(=O)(O)O)cc2)C(=O)N1Cc1cccc2cccnc12 [Compound A, 4-(((6S,9S,9aS)-1-(benzylcarbamoyl)-2,9-dimethyl-4,7-dioxo-8-(quinolin-8-ylmethyl)octahydro-1H-pyrazino[2,1-c][1,2,4]triazin-6-yl)methyl)phenyl dihydrogen phosphate]
- Serum ALT (NASH mice [1]; [9]): 49±17 U/L
- Serum ALT (NASH mice [1]; [10]): 45±17 U/L
- Collagen Type 3 mRNA expression level (relative, normalized to 36B4) (Collagen Type 3; high dose 3 mg/kg/day s.c. infusion 9-13 wks, n = 8, Vehicle 3.09 ± 1.51, tended to be down-regulated, 3 mg/kg/day): 2.22±0.46
- Collagen Type 3 mRNA expression level (relative, normalized to 36B4) (Collagen Type 3; low dose 1 mg/kg/day s.c. infusion 9-13 wks, n = 8, Vehicle 3.09 ± 1.51, significantly down-regulated, 1 mg/kg/day): 1.93±0.37
- Sirius red-positive area (fibrosis area) (NASH mice [2]; high dose 3 mg/kg/day continuous s.c. infusion 9-13 wks, significantly decreased, 3 mg/kg/day): 0.67±0.21%
- Sirius red-positive area (fibrosis area) (NASH mice [2]; low dose 1 mg/kg/day continuous s.c. infusion 9-13 wks, no significant difference, 1 mg/kg/day): 0.82±0.31%
- Fibrosis (FIG. 1 legend) (NASH mice [2]; NASH rat model as printed in the legend, FIG. 1 shows high-dose 3 mg/kg/day versus Vehicle): reduces fibrosis
- Serum TG (NASH mice [3]; high dose 3 mg/kg/day s.c. infusion 9-13 wks, Vehicle 391±175, increased): 1145 ± 580 mg/dL
- Serum TG (NASH mice [3]; low dose 1 mg/kg/day s.c. infusion 9-13 wks, Vehicle 391±175, no significant difference): 815 ± 754 mg/dL
- Liver-to-body weight ratio (NASH mice [4]; [9]): 8.5±0.6%
- Mean liver weight (NASH mice [4]; [9]): 2024 ± 159 mg
- Liver-to-body weight ratio (NASH mice [4]; [10]): 8.0±0.8%
- Mean liver weight (NASH mice [4]; [10]): 1803 ± 219 mg
- α-SMA mRNA expression level (relative, normalized to 36B4) (α-SMA; high dose 3 mg/kg/day s.c. infusion 9-13 wks, n = 8, Vehicle 3.19 ± 1.81, no significant difference, 3 mg/kg/day): 2.23±1.23
- α-SMA mRNA expression level (relative, normalized to 36B4) (α-SMA; low dose 1 mg/kg/day s.c. infusion 9-13 wks, n = 8, Vehicle 3.19 ± 1.81, tended to be down-regulated, 1 mg/kg/day): 1.88±0.60
- HE-stained liver sections, difference from Vehicle group (NASH mice [5]; [9]): No obvious difference
- NAFLD Activity score (NAS) (NASH mice [5]; [9]): 5.1±0.6
- HE-stained liver sections: lobular inflammation (NASH mice [5]; low dose 1 mg/kg/day s.c. infusion 9-13 wks, compared with the Vehicle group): improved
- NAFLD Activity score (NAS) (NASH mice [5]; [10]): 4.8±0.9
- Liver TG content (NASH mice [6]; [9]): 67.8 ± 24.0 mg/g
- Liver TG content (NASH mice [6]; [10]): 64.8 ± 25.6 mg/g
- Mean body weight at sacrifice [7, 9]: 23.7 ± 1.1 g
- Mean body weight during the treatment period ([7]; high dose 3 mg/kg/day s.c. infusion): no significant differences
- Mean body weight at sacrifice [7, 10]: 22.6 ± 2.6 g
- Mean body weight during the treatment period ([7]; low dose 1 mg/kg/day s.c. infusion): no significant differences
- General condition ([7]; any of the animals (all groups), throughout the treatment period): No deterioration
- TIMP-1 mRNA expression level (relative, normalized to 36B4) (TIMP-1; high dose 3 mg/kg/day s.c. infusion 9-13 wks, 3 mg/kg/day): 6.73±2.23
- TIMP-1 mRNA expression level (relative, normalized to 36B4) (TIMP-1; low dose 1 mg/kg/day s.c. infusion 9-13 wks, 1 mg/kg/day): 5.35±2.82
- Whole blood glucose (non-fasting) (NASH mice [8]; high dose 3 mg/kg/day s.c. infusion 9-13 wks, Vehicle 605±134, tended to increase): 791 ± 54 mg/dL
- Whole blood glucose (non-fasting) (NASH mice [8]; low dose 1 mg/kg/day s.c. infusion 9-13 wks, Vehicle 605±134, no significant difference): 677 ± 36 mg/dL
